Reference: US6706716B2, “Compounds specific for the human α1d adrenergic receptor and uses thereof” (Synaptic Pharmaceutical Corporation, priority 1998, dated 2004)

Key:
[1] = target: T1, human α1b adrenergic receptor (Homo sapiens, UniProt P35368); assay: Radioligand binding ([3H]prazosin) at cloned human α1b adrenergic receptor; conditions: LM(tk-) cell membranes, read-out: Binding affinities (pKi) α1b (converted)
T1 construct: The entire coding region of α1b (1563 bp); expressed in transfected cells
T1 sequence (P35368 1-520): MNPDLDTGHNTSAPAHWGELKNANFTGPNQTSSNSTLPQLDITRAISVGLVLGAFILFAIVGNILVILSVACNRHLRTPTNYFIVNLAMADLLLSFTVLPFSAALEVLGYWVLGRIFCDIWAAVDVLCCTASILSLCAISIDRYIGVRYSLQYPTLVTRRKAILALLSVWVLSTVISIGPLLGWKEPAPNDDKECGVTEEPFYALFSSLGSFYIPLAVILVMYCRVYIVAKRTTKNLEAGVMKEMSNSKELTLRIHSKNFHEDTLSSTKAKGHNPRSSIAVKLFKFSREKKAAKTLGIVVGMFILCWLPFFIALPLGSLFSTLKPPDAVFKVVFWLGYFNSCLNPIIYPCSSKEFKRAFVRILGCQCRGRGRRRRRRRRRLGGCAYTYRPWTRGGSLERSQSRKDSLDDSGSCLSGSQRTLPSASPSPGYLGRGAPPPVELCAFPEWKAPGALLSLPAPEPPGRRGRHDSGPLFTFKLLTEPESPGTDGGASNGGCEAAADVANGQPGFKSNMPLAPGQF
Protocol: (§1) First, conditions were determined which allowed measurement of the specific binding of a compound known to bind to the receptor. Then, the binding of the known compound to the receptor in membrane preparations was evaluated in the presence of several different concentrations of the test compound.
(§2) These cell lines were prepared by transfecting the cloned cDNA or cloned genomic DNA or constructs containing both genomic DNA and cDNA encoding the human receptors as described below.
α1b Human Adrenergic Receptor: The entire coding region of α1b (1563 bp), including 200 base pairs of 5′ untranslated sequence (5′ UT) and 600 bp of 3′ untranslated sequence (3′ UT), was cloned into the EcoRI site of pCEXV-3 eukaryotic expression vector. The construct involved ligating the full-length EcoRI brainstem cDNA fragment from λ ZapII into the expression vector. Stable cell lines were selected as described above. Membranes were harvested and assayed for their ability to bind [^3H]prazosin as described below (see Radioligand Binding assays). The cell line used herein was designated L-α1B and was deposited with the American Type Culture Collection, 12301 Parklawn Drive, Rockville, Md. 20852, U.S.A. under the provisions of the Budapest Treaty for the International Recognition of the Deposit of Microorganisms for the Purposes of Patent Procedure. The cell line L-α1B was accorded ATCC Accession No. CR 11139, on Sep. 29, 1992.
(§3) Radioligand Binding Assays for α1 Human Adrenergic Receptors: Transfected cells from culture flasks were scraped into 5 ml of 5 mM Tris-HCl, 5 mM EDTA, pH 7.5, and lysed by sonication. The cell lysates were centrifuged at 1000 rpm for 5 min at 4° C., and the supernatant was centrifuged at 30,000×g for 20 min at 4° C. The pellet was suspended in 50 mM Tris-HCl, 1 mM MgCl2, and 0.1% ascorbic acid at pH 7.5. Binding of the α1, antagonist [^3H]prazosin (0.5 nM, specific activity 76.2 Ci/mmol) to membrane preparations of LM(tk-) cells was done in a final volume of 0.25 ml and incubated at 37° C. for 1 hour. Nonspecific binding was determined in the presence of 10 μM phentolamine. The reaction was stopped by filtration through GF/B filters using a cell harvester.

[2] = target: T2, human α1d adrenergic receptor (Homo sapiens, UniProt P25100); assay: Radioligand binding ([3H]prazosin) at cloned human α1d adrenergic receptor; conditions: LM(tk-) cell membranes, read-out: Binding affinities (pKi) α1d (converted)
T2 construct: The entire coding region. of α1d (1719 bp); expressed in transfected cells
T2 sequence (P25100 1-572): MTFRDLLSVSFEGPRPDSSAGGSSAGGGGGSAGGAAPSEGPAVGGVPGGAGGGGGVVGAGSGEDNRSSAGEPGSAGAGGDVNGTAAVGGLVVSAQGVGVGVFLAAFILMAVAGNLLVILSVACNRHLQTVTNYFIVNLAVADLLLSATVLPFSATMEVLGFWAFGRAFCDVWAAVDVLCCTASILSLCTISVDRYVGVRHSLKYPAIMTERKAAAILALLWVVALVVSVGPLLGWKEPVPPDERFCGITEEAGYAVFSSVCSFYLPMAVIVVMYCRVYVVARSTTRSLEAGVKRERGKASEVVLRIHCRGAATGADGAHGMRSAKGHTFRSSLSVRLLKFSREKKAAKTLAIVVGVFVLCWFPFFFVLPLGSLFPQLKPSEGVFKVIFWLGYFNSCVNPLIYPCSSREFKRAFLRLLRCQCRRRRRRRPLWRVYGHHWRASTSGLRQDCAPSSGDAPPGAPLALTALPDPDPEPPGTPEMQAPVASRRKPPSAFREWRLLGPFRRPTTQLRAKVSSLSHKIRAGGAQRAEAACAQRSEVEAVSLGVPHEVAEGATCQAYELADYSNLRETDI
Protocol: as §1, §2
α1d Human Adrenergic Receptor: The entire coding region. of α1d (1719 bp), including 150 base pairs of 5′ untranslated sequence (5′ UT) and 300 bp of 3′ untranslated sequence (3′ UT), was cloned into the BamHI and ClaI sites of the polylinker-modified eukaryotic expression vector pCEXV-3, called EXJ.HR. The construct involved the ligation of partial overlapping human lymphocyte genomic and hippocampal cDNA clones: 5′ sequence were contained on a 1.2 kb SmaI-XhoI genomic fragment (the vector-derived BamHI site was used for subcloning instead of the internal insert-derived SmaI site) and 3′ sequences were contained on a 1.3 kb XhoI-ClaI cDNA fragment (the ClaI site was from the vector polylinker). Stable cell lines were obtained by cotransfection with the plasmid α1A/EXJ (expression vector containing the α1a receptor gene (old nomenclature)) and the plasmid pGCcos3neo (plasmid containing the aminoglycoside transferase gene) into LM(tk-) cells using the calcium phosphate technique. The cells were grown, in a controlled environment (37° C., 5% CO2), as monolayers in Dulbecco's modified Eagle's Medium (GIBCO, Grand Island, N.Y.) containing 25 mM glucose and supplemented with 10% bovine calf serum, 100 units/ml penicillin g, and 100 μg/ml streptomycin sulfate. Stable clones were then selected for resistance to the antibiotic G-418 (1 mg/ml), and membranes were harvested and assayed for their ability to bind [^3H]prazosin as described below (see Radioligand Binding assays).
The cell line expressing the human α1d receptor used herein was designated L-α1A (old nomenclature) and was deposited with the American Type Culture Collection, 12301 Parklawn Drive, Rockville, Md. 20852, U.S.A. under the provisions of the Budapest Treaty for the International Recognition of the Deposit of Microorganisms for the Purposes of Patent Procedure. The cell line expressing the human α1d receptor, was accorded ATCC Accession No. CRL 11138, and was deposited on Sep. 25, 1992.
as §3

| Ki [1] [µM] | Ki [2] [µM] | Structure (SMILES) |
| --- | --- | --- |
| 0.0631 | 0.000794 | C[C@H](CN1CCN(c2cc(F)ccc2F)CC1)N1C(=O)CC2(CCCC2)CC1=O [Compound 8, 8-{(1R)-2-[4-(2,5-Difluorophenyl)piperazin-1-yl]-1-methylethyl}-8-azaspiro[4.5]decane-7,9-dione] |
| 0.126 | 0.00398 | O=C1CC2(CCCC2)CC(=O)N1CCN1CCN(c2c(F)cccc2F)CC1 [Compound 14, 8-{2-[4-(2,6-Difluorophenyl)piperazino]ethyl}-8-azaspiro[4.5]decane-7,9-dione] |
| 1.58 | 0.00794 | O=C1CC2(CCCC2)CC(=O)N1CCN1CCN(c2ccc(F)c(F)c2)CC1 [Compound 15, 8-{2-[4-(3,4-Difluorophenyl)piperazin-1-yl]ethyl}-8-azaspiro[4.5]decane-7,9-dione] |

More lines, now with the values behind:

| Structure (SMILES) | Ki [1] [µM] | Ki [2] [µM] |
| --- | --- | --- |
| O=C1CC2(CCCC2)CC(=O)N1CCN1CCN(c2cc(F)ccc2F)CC1 [Compound 6, 8-{2-[4-(2,5-Difluorophenyl)piperazin-1-yl]ethyl}-8-azaspiro[4.5]decane-7,9-dione] | 0.0501 | 0.001 |
| O=C1CC2(CCCC2)CC(=O)N1CCN1CCN(c2cc(F)c(F)cc2F)CC1 [Compound 7, 8-{2-[4-(2,4,5-Trifluorophenyl)piperazin-1-yl]ethyl}-8-azaspiro[4.5]decane-7,9-dione] | 0.398 | 0.002 |
| C[C@@H](CN1CCN(c2cc(F)ccc2F)CC1)N1C(=O)CC2(CCCC2)CC1=O [Compound 10, 8-{(1S)-2-[4-(2,5-Difluorophenyl)piperazin-1-yl]-1-methylethyl}-8-azaspiro[4.5]decane-7,9-dione] | 3.98 | 0.0501 |
| COc1ccc(F)cc1C1CCN(CCN2C(=O)CC3(CCCC3)CC2=O)CC1 [Compound 12, 8-{2-[4-(5-Fluoro-2-methoxyphenyl)piperidin-1-yl]ethyl}-8-azaspiro[4.5]decane-7,9-dione] | 0.0631 | 0.001 |
| Cc1ccc(Cl)cc1N1CCN(CCN2C(=O)CC3(CCCC3)CC2=O)CC1 [Compound 13, 8-{2-[4-(5-Chloro-2-methylphenyl)piperazino]ethyl}-8-azaspiro [4.5]decane-7,9-dione] | 3.16 | 0.0398 |
